In US11691976B2, “Coelenterazine analogues” (PROMEGA CORPORATION, priority 2018, dated 2023):

Experiments:
[1] = Solubility testing in formulation, UV-Vis of supernatant vs 0.2 micron filtrate; assay type: physicochemical; details: 8.7 mM in ethanol/propylene glycol/hydroxypropyl-β-cyclodextrin/PEG 400/water (10:10:10:35:35); UV spectra of supernatant vs filtrate
Method: This 5× stock solution was then added to a solution of hydroxypropyl-β-cyclodextrin/water/PEG400 to give a formulation mixture of 8.7 mM in ethanol/propylene glycol/hydroxypropyl-β-cyclodextrin/PEG 400/water (10:10:10:35:35). The mixture was vortexed and centrifuged. Supernatant was sampled and measured in a UV-Vis spectrometer. The mixture was filtered through a 0.2 micron syringe filter and the filtrate was measured and compared to the supernatant.
Shown in FIG. 1 are UV spectra of JRW-1040 in the formulation, comparing supernatant and filtrate. The two UV spectra are superimposed, showing JRW-1040 is fully soluble in the formulation. Shown in FIG. 2 is the same experiment with furimazine. […] This is an example showing improvements in solubility compared to furimazine.

NANOLUC® Luciferase = NANOLUC® Luciferase (Oplophorus gracilirostris, UniProt Q9GV45, A31E/A60N/A81I/F95D/I117V/K70R/L54V/L99Q/M102K/N193R/P142E/Q151K/Q38R/Q45L/V71I/Y165I); test: Luminescence assay: substrate titration with purified NANOLUC Luciferase (RLU, signal half-life, Km); assay type: biochemical; details: 100 μM substrate; initial light output three minutes after substrate addition; relative to furimazine set to 1.0
Sequence of NANOLUC® Luciferase (Q9GV45 28-196 with tags or gaps with the stated changes limits assumed): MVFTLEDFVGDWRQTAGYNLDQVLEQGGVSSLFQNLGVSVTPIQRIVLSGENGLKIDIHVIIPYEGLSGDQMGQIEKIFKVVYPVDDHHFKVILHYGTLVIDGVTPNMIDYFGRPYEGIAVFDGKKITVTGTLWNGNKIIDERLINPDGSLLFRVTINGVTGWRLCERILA
Method: Each compound to be screened was dissolved in DMSO (5 mM) and then further diluted to 100 μM in NANO-GEO® Luciferase Assay Buffer. A two-fold dilution series was prepared for each substrate by serially diluting 500 μl of the substrate solution with 500 μl of NANO-GLO® Luciferase Assay Buffer. Each diluted substrate titration was then combined in equal volumes with purified NANOLUC® Luciferase diluted into CO2 independent media+10% FBS. Initial light output for each substrate was measured in a GLOMAX®-Multi+ luminometer three minutes after substrate addition and then at five minute intervals as a means to determine signal half-life. Signal half-life was calculated using GraphPad Prism One Phase Decay regression and Km and Vmax were calculated using GraphPad Prism using Michaelis-Menten regression.
The synthesized coelenterazine analogues (compounds of formula (I) and (II)) were evaluated for their suitability as luciferase substrates. NANOLUC® luciferase was employed for the screening because it is a small (19 kDa), stable, and particularly bright enzyme. […] RLU, half-life, and Km values are for furimazine is set to 1.0. […]

Row | Compound | Solubility in the formulation [1] | RLU (@100 μM) (NANOLUC® Luciferase)
1 | O=c1c(Cc2ccco2)nc2c(Cc3ccccc3)[nH]c(-c3ccccc3)cn1-2 [Furimazine, 8-benzyl-2-(furan-2-ylmethyl)-6-phenylimidazo[1,2-a]pyrazin-3(7H)-one, reference compound] | not fully soluble | 1
2 | O=c1c(Cc2cccs2)nc2c(Cc3ccccc3)[nH]c(-c3cccc(O)c3)cn1-2 [JRW-1040, 8-benzyl-6-(3-hydroxyphenyl)-2-(thiophen-2-ylmethyl)imidazo[1,2-a]pyrazin-3(7H)-one] | fully soluble | 0.8
